The test system of series [1] is T1, recombinant human PDE4.
T1 construct: PDE4 IC50; other: human recombinant PDE4
The series is described as follows: PDE4 inhibition, recombinant human PDE4 (charcoal separation PDE assay). It is filed as biochemical. The method, then:
The compounds of structural formula (II) were tested for an ability to inhibit PDE4. The ability of a compound to inhibit PDE4 activity is related to the IC50 value for the compound, i.e., the concentration of inhibitor required for 50% inhibition of enzyme activity. The IC50 value for compounds of structural formula (II) were determined using recombinant human PDE4.
Phosphodiesterase activity of the preparations was determined as follows. PDE assays utilizing a charcoal separation technique were performed essentially as described in Loughney et al. (1996). In this assay, PDE activity converts [32P]cAMP or [32P]cGMP to the corresponding [32P]5′-AMP or [32P]5′-GMP in proportion to the amount of PDE activity present. The [32P]5′-AMP or [32P]5′-GMP then was quantitatively converted to free [32P]phosphate and unlabeled adenosine or guanosine by the action of snake venom 5′-nucleotidase. […] The assay was performed at 30° C. in a 100 μL reaction mixture containing (final concentrations) 40 mM Tris HCl (pH 8.0), 1 μM ZnSO4, 5 mM MgCl2, and 0.1 mg/mL bovine serum albumin (BSA). Alternatively, in assays assessing PDEl-specific activity, incubation mixtures further incorporated the use of 0.1 mM CaCl2 and 10 μg/mL calmodulin. PDE enzyme was present in quantities that yield <30% total hydrolysis of substrate (linear assay conditions). The assay was initiated by addition of substrate ([…] [32P]cAMP or cGMP), and the mixture was incubated for 12 minutes. Seventy-five (75) μg of Crotalus atrox venom then was added, and the incubation was continued for 3 minutes (15 minutes total). The reaction was stopped by addition of 200 μL of activated charcoal (25 mg/mL suspension in 0.1 M NaH2PO4, pH 4). After centrifugation (750×g for 3 minutes) to sediment the charcoal, a sample of the supernatant was taken for radioactivity determination in a scintillation counter and the PDE activity was calculated.
The table below illustrates the ability of compounds of formula (II) to inhibit PDE4 activity and TNFα release in vitro. In the following table, the IC50 values were determined against human recombinant PDE4.

Series [2] relates to human peripheral blood lymphocytes (PBL). The series is described as follows: Lipopolysaccharide-stimulated TNFα release from human peripheral blood lymphocytes. Particulars: LPS-stimulated TNFα release from human PBL. It is filed as cell-based. The protocol: The compounds of structural formula (II) also were tested for an ability to reduce TNFα secretion in human peripheral blood lymphocytes. The ability to reduce TNFα secretion is related to the EC50 values (i.e., the effective concentration of the compound capable of inhibiting 50% of the total TNFα).
To assess the ability of a compound to reduce TNFα secretion in human peripheral blood lymphocytes (PBL), the following tests were performed.
Heparinized blood (approximately 30 mL) drawn from human volunteers was mixed 1:1 with Dulbecco's modified phosphate-buffered saline. This mixture was mixed 1:1 with HISTOPAQUE® and centrifuged at 1,500 rpm at room temperature without braking in the swinging bucket of a Beckman model TJ6 centrifuge. Erythrocytes were centrifuged to the bottom of the tubes, and serum remained at the surface of the tubes. A layer containing lymphocytes sedimented between the serum and HISTOPAQUE® layers, and was removed by aspiration to a fresh tube. The cells were quantified and adjusted to 3×10^6 cells/mL and a 100 μL aliquot is placed into the wells of a 96 well plate. Test compounds and RPMI media (Gibco/BRL Life Sciences) are added to each of the wells 15 minutes prior to addition of bacterial LPS ([…]). The mixture was allowed to incubate for 20 hours at 37° C. in a humidified chamber. The cells then were separated by centrifuging at 800 rpm for 5 minutes at room temperature. An aliquot of 180 μL of supernatant was transferred to a new plate for determination of TNFα concentration. TNFα protein in the cell supernatant fluids was measured using a commercially available enzyme-linked immunosorbent assay (ELISA) (CYTOSCREEN® Immunoassay Kit from Biosource International).
The cell-based assay provided the following results for various pyrrolidine compounds of the present invention. The EC50 values (i.e., effective concentration of the compound capable of inhibiting 50% of the total TNFα) illustrate the ability of the present compounds to inhibit LPS-stimulated TNFα release from human PBL.

The subject of the next series is female Balb/c mice. The series can be described thus: Combined mouse endotoxin-stimulated TNFα release and locomotor activity assay (spontaneous mobility). Format: in vivo. The settings on record: i.p., 50 mg/kg dose, locomotor activity. The protocol: (§1) The purpose of this study was to determine the efficacy of PDE4 inhibitors in vivo in an LPS mouse model together with a determination with respect to central nervous system (CNS) side-effects manifested by a decrease in spontaneous mobility.
(§2) The test animals were female Balb/c mice, having an average weight of about 20 g. The PDE4 inhibitors, formulated in 30% Cremophor® EL, were administered via intraperitoneal (i.p.) injections at doses of 0.1, 1.0, 10.0, and 100 mg/kg. Individual dose volumes (about 150 μL) were adjusted based on the body weights measured. One hour later, 5 mg/kg LPS in a final volume of 200 μL was injected via the tail vein to each animal. Ninety minutes following the LPS treatment, the animals were bled and serum samples were collected before being stored at −70° C. until assayed.
(§3) Movement of the X-Y plane, or rearina up on the hind legs, was quantified by counting the number of “light-beam” crosses per unit of time. A decrease in the number of activity events is directly proportional to the mobility or immobilization of the animal. The quantitative scoring correlated well with the subjective measurements described above.
(§4) The following table summarizes the locomotor activity assay (mobility, % activity) results obtained by the above-described method:
(§5) effective dose, in mg/kg, that decreases spontaneous mobility 50% of control.

Assay in series [3]: as above
Particulars: female, Balb/c, in vivo, ip, locomotor activity, read-out: ED50 (effective dose that decreases spontaneous mobility 50% of control). Format: in vivo. The method, then:
as §1, §2, §3, §4, §5

The conditions of series [4]: in vivo; cited from earlier work.
The test system of series [5] is recombinant human PDE4. The settings on record: prior art value; read-out: IC50 with respect to inhibiting recombinant human PDE4 (reported); cited from earlier work.

Each structure is given as a SMILES string. Like-named read-outs stand apart in the source and are kept apart here. Bounds are passed on as bounds.

Regarding `COC(=O)N1CC(c2ccc(OC)c(OC3Cc4ccccc4C3)c2)[C@](C)(/C(C)=N\O)C1` (mixture of isomers) [Example 3], the IC50 with recombinant human PDE4 [1] worked out at 189 nM. The compound further showed a concentration giving a half-maximal response (EC50) in series [2] (Homo sapiens, Lymphocyte) of 551 nM.
With `CN/N=C(\C)C1(C)CN(C(=O)OC)CC1c1ccc(OC)c(OC2CCCC2)c1` (single isomer, unassigned) [Example 1a], in the series with recombinant human PDE4 [1], the IC50 was 116 nM. In addition, in series [2], the EC50 was determined as 76 nM. Moreover, the “Mobility (% activity at 50 mg/kg dose)” value in the series with female Balb/c mice is on record as 64% activity.
The matching figures for `CN/N=C(\C)C1(C)CN(C(=O)OC)CC1c1ccc(OC)c(OC2CCCC2)c1` (single isomer, unassigned) [Example 1b]: 2.2 nM, 2.2 nM and 6% activity.
Consider `COC(=O)N1CC(c2ccc(OC)c(OC3CCCC3)c2)[C@](C)(/C(C)=N\O)C1` (some centres unmarked) [Example 2a], for which the IC50 in the series with recombinant human PDE4 [1] stood at 49 nM. In series [2] (Homo sapiens, Lymphocyte), this compound displayed an EC50 of 281 nM. In addition, the ED50 in series [3] is greater than 50 mg/kg.
The matching figures for `COC(=O)N1CC(c2ccc(OC)c(OC3CCCC3)c2)[C@@](C)(/C(C)=N\O)C1` (some centres unmarked) [Example 2b]: 2.2 nM, 23 nM and 7 mg/kg.
For `COc1ccc([C@@H]2CNC(=O)C2)cc1OC1CCCC1` [R-rolipram], the “Emetic potency relative to the (+)-enantiomer” value in series [4] is given as “about ten-fold more emetic”.
Turning to `COc1ccc(C2CNC(=O)C2)cc1OC1CCCC1` (centres unmarked) [Rolipram], the IC50 in the series on recombinant human PDE4 [5] was roughly 200 nM.
Take `COC(=O)N1CC(c2ccc(OC)c(OC3CCCC3)c2)C(C)(C(C)=O)C1` (centres unmarked) [formula (I)]: in the series on recombinant human PDE4 [5], the IC50 was roughly 2 nM.

The record behind these values is patent US6500856B2, “Cyclic AMP-specific phosphodiesterase inhibitors” (Icos Corporation, priority 1999, dated 2002).
